Series [1] relates to histamine-induced death. As to the kind of experiment: Protective effect on histamine-induced death. The series is classed as in vivo, guinea pig (Hartley-strain male). Particulars: oral 1 mg/kg, 2 h before 1.25 mg/kg i.v. histamine hydrochloride, guinea pig; for responders at 1 mg/kg: Cavia porcellus, read-out: Percent inhibition of histamine-induced death at a dose of 1 mg/kg, P.D. (%). The method, then:
Hartley-strain male guinea pigs weighing 200 to 250 g were employed. After the test animals were starved for 5 hours, the test substance was orally administered at a dose of 1 mg/kg. 2 hours later after administration of the test substance, 1.25 mg/kg of histamine hydrochloride was intravenously administered to induce histamine shock. The potency of the test substance was judged by the percent inhibition of death induced by histamine.

In series [2] the test system is thiopental-induced anesthesia. The series is classed as in vivo, mouse (ddY-strain male). Conditions: 60 mg/10 ml/kg, control 1.00. As for the experimental part:
ddY-strain male mice of 5 weeks of age were employed. Thiopental sodium was dissolved in physiological saline, and the test substance was prepared with a suspending agent of 0.5% Tween 80 (trade name, produced by Atlas Powder Co.; polyoxyethylene (20) sorbitan mono-oleate) and 1% gum tragacanth in the ratio of 1:2.5. The test animals were starved for 4 hours, 60 mg/10 ml/kg of the test substance was intraperitoneally administered (or orally administered), and then 20 minutes later (1 hour later in the case of oral administration), 30 mg/[…] of thiopental sodium was intravenously administered. The time immediately from intravenous administration to the righting reflex was measured, and this was defined as the anesthetic time. The formula for determining the anesthesia elongation is shown below. [formula]

For series [3] the following is noted: cited from earlier work.
Series [4] in a line: toxicity test in mice by oral administration. Conditions: in vivo, male mouse. From the text:
Also, the compounds of the present invention are extremely safe, and can be used continuously for a long term as pharmaceuticals, and were confirmed to have good tolerability in the toxicity test in mice by oral administration.

[5] abbreviates: p.o., 1 hour before i.v. thiopental sodium.
The mark [6] stands for this setting: i.p., 20 minutes before i.v. thiopental sodium.

The LD50 is the dose at which mortality reaches 50%. Read a high LD50 as lower toxicity.

Like-named read-outs stand apart in the source and are kept apart here.

As to `c1ccc2c(c1)Sc1ccccc1N2CC1CN2CCC1CC2` (centres unmarked) [Meqiutazine, reference compound], in series [1], the responders at 1 mg/kg is 80%.
Take `NC(=O)CCCN1CCC(OC(c2ccc(Cl)cc2)c2ccccn2)CC1.O=C(O)/C=C\C(=O)O` (centres unmarked) [Compound M, 4-[4-[(4-Chlorophenyl)-2-pyridylmethoxy]-1-piperidyl]-butanamide maleate]: in series [1], the responders at 1 mg/kg was 100%. Besides, the “The ratio of the elongation on the anesthetic time induced by thiopental” value (shortened to “The ratio of the elongation”) in series [2] (setting [5]) was 0.75.
For `CCOc1ccc2nc(SCCCN3CCC(OC(c4ccc(Cl)cc4)c4ccccn4)CC3)sc2c1.O=C(O)/C=C/C(=O)O` (centres unmarked) [Compound G, 2-[3-[4-[(4-chlorophenyl)-2-pyridylmethoxy]-1-piperidyl]propylthio]-6-ethoxybenzothiazole fumarate], in that order: 100% and 0.92.
Turning to `CCOC(=O)C=CCN1CCC(OC(c2ccc(Cl)cc2)c2ccccn2)CC1` (centres unmarked) [Compound O, Ethyl 4-[4-[(4-chlorophenyl)-2-pyridylmethoxy]-1-piperidyl]-2-butenoate], the responders at 1 mg/kg in series [1] stood at 100%. In addition, the “The ratio of the elongation” value in series [2] (setting [5]) worked out at 1.14.
As for `CC(C)(C)c1ccc(C(O)CCCN2CCC(C(O)(c3ccccc3)c3ccccc3)CC2)cc1` (centres unmarked) [Terfenadine, reference compound], in series [1], the responders at 1 mg/kg worked out at 50%. In addition, in series [3] (in vivo), the sedative side-effect entry is recorded as “little sedative side-effect”.
As for `CCOC(=O)CCCN1CCC(OC(c2ccc(Cl)cc2)c2ccccn2)CC1.Cc1ccc(S(=O)(=O)O)cc1` (centres unmarked) [Compound K, Ethyl 4-[4-[(4-chlorophenyl)-2-pyridylmethoxy]-1-piperidyl]butanoate p-toluenesulfonate], the “The ratio of the elongation” value in series [2] (setting [5]) is 1.19. This molecule yielded a median lethal dose (LD50) in series [4] of 2200 mg/kg.
In the case of `c1ccc(C(c2ccccc2)N2CCN(CCCSc3nc4ccccc4s3)CC2)cc1` [Compound I, 2-[3-[4-(diphenylmethyl)-1-piperadinyl]propylthio]benzothiazole dimaleate], the responders at 1 mg/kg in series [1] was 80%. For the same molecule, in series [2] (setting [6]), the “The ratio of the elongation” value is listed as 1.25.
For `Clc1ccc(C(OC2CCN(CCCSc3nc4ccccc4o3)CC2)c2ccccn2)cc1` (centres unmarked) [Compound C] the same measures were 100% and 0.91.
In the case of `CN1CCCC(n2nc(Cc3ccc(Cl)cc3)c3ccccc3c2=O)CC1` (centres unmarked) [Azelastine hydrochloric acid, reference compound], the responders at 1 mg/kg in series [1] turned out to be 100%.
Same read-out and setting: to `O=C(O)CCCN1CCC(OC(c2ccc(Cl)cc2)c2ccccn2)CC1` (centres unmarked) [Compound L, 4-[4-[(4-Chlorophenyl)-2-pyridylmethoxy]-1-piperidyl]-butanoic acid] belongs 100%.
As for `Clc1ccc(C(OC2CCN(CCNc3nc4ccccc4o3)CC2)c2ccccn2)cc1.O=C(O)/C=C/C(=O)O` (centres unmarked) [Compound D, 2-[2-[4-[(4-Chlorophenyl)-2-pyridylmethoxy]-1-piperidyl]-ethylamino]benzoxazole fumaric acid salt], the responders at 1 mg/kg in series [1] came out at 100%. Besides, in series [2] (setting [5]), the “The ratio of the elongation” value came out at 0.88. For the same molecule, the 50% lethal dose (LD50) in series [4] worked out at 740 mg/kg.
On to `CCOC(=O)CCCN1CCC(OC(c2ccccc2)c2ccccc2)CC1.O=C(O)/C=C/C(=O)O` [Compound N, Ethyl 4-(4-diphenylmethoxy-1-piperidyl)butanoate fumaric acid salt], for which the responders at 1 mg/kg in series [1] stood at 80%. Further, the “The ratio of the elongation” value in series [2] (setting [5]) was 0.90.
For `O=C(CCCN1CCC(OC(c2ccc(Cl)cc2)c2ccccn2)CC1)c1ccccc1` (centres unmarked) [Compound Q, 4-[(4-Chlorophenyl)-2-pyridylmethoxy]-1-(3-benzoylpropyl)piperidine] the same measures were 100% and 1.25.
Take `Clc1ccc(C(OC2CCN(CCSc3nc4ccccc4o3)CC2)c2ccccn2)cc1.O=C(O)/C=C/C(=O)O` (centres unmarked) [Compound B, 2-[2-[4-[(4-Chlorophenyl)-2-pyridylmethoxy]-1-piperidyl]-ethylthio]benzoxazole fumarate]: in series [2] (setting [5]), the “The ratio of the elongation” value was 1.21. The molecule further yielded an LD50 in series [4] of 1700 mg/kg.
On to `Clc1ccc(C(OC2CCN(CCSc3nc4ccccc4s3)CC2)c2ccccn2)cc1` (centres unmarked) [Compound E, 2-[2-[4-[(4-Chlorophenyl)-2-pyridylmethoxy]-1-piperidyl]-ethylthio]benzothiazole], for which, in series [1], the responders at 1 mg/kg came to 60%. The “The ratio of the elongation” value in series [2] (setting [6]) came to 1.02.
Turning to “Chlorophenylamine maleate [reference compound]”, in series [1], the “Percent inhibition of histamine-induced death at a dose of 1 mg/kg, P.D. (%)” value was 100%. Besides, the “The ratio of the elongation” value in series [2] (setting [6]) is 1.81.
As for `O=c1[nH]c2ccccc2n1CCCN1CCN(C(c2ccccc2)c2ccccc2)CC1` [Oxatomide, reference compound], in series [1], the responders at 1 mg/kg is 100%. Moreover, the “The ratio of the elongation” value in series [2] (setting [5]) was 4.56.
Regarding `Clc1ccc(C(OC2CCN(CCCSc3nc4ccccc4s3)CC2)c2ccccn2)cc1` (centres unmarked) [Compound F, 2-[3-[4-[(4-Chlorophenyl)-2-pyridylmethoxy]-1-piperidyl]-propylthio]benzothiazole], the responders at 1 mg/kg in series [1] was found to be 80%. For the same molecule, in series [2] (setting [6]), the “The ratio of the elongation” value is reported as 1.73.
For `Clc1ccc(C(OC2CCN(CCNc3nc4ccccc4s3)CC2)c2ccccn2)cc1` (centres unmarked) [Compound H, 2-[2-[4-[(4-Chlorophenyl)-2-pyridylmethoxy]-1-piperidyl]-ethylamino]benzothiazole] the same measures were 100% and 1.05.
On to `CC(=O)CCCN1CCC(OC(c2ccc(Cl)cc2)c2ccccn2)CC1.O=C(O)/C=C/C(=O)O` (centres unmarked) [Compound P, 5-[4-[(4-Chlorophenyl)-2-pyridylmethoxy]-1-piperidyl]-2-pentanone fumaric acid salt], for which the responders at 1 mg/kg in series [1] amounted to 100%. Moreover, in series [2] (setting [5]), the “The ratio of the elongation” value is given as 0.86.
On to `CCOC(=O)CCCN1CCC(OC(c2ccc(Cl)cc2)c2ccccn2)CC1` (centres unmarked) [Compound J, Ethyl 4-[4-[(4-chlorophenyl)-2-pyridylmethoxy]-1-piperidyl]butanoate], for which, in series [1], the responders at 1 mg/kg is 100%. In addition, in series [2] (setting [6]), the “The ratio of the elongation” value is 1.04.
For the molecule `Clc1ccc(C(OC2CCN(CCSc3nc4ccccc4o3)CC2)c2ccccn2)cc1` (centres unmarked) [Compound A, 2-[2-[4-[(4-Chlorophenyl)-2-pyridylmethoxy]-1-piperidyl]-ethylthio]benzoxazole], in series [1], the responders at 1 mg/kg came to 100%. Besides, the “The ratio of the elongation” value in series [2] (setting [6]) is on record as 0.89.
On to `COc1ccc(CCN2CCC(Nc3nc4ccccc4n3Cc3ccc(F)cc3)CC2)cc1` [Astemizole, reference compound], for which, in series [1], the responders at 1 mg/kg was 100%. In addition, the sedative side-effect entry in series [3] (reported for control drugs) was “little sedative side-effect”.

The record behind these values is patent US4929618A, “Piperdine and piperazine derivatives, and antihistaminic pharmaceutical compositions containing the same” (priority 1988, dated 1990).
